Results as given in patent US20060003016A1, “Therapeutic method for endolymphatic hydrops associated diseases” (priority 2004, published 2006).
Where two headings read alike, the source gives them in different places.

Test system: patients with Meniere's disease and endolymphatic hydrops associated diseases
Conditions: for hearing level / hearing level, average (500-4000 Hz): case 4, right ear
Description: In the present case who could be followed up for more than 24 months after treatment with water intake, the therapeutic effect was judged by using the criteria of AAO-HNS (1995)^14), 15). Proviso that in an examination on changes of the hearing, although the criteria in the four-frequency pure-tone averages (PTA) of AAO-HNS (1995)^14) adopted mean values of the hearing levels consisting of 500 Hz, 1000 Hz, 2000 Hz and 3000 Hz, in our case, the value of 4000 Hz was used in stead of that of 3000 Hz.
In each figure, a horizontal axis indicates frequency (Hz) and a vertical axis indicates hearing level. […] A graph in the upper position indicates better hearing level.

O [water intake, water]
20 dB: hearing level after treatment (case 3, left ear, 250 Hz, Jun. 7, 2002, poorest level 18-24 months after treatment, water intake, before 25 dB) | hearing level (250 Hz, Nov. 2003, water intake 1.5 lit./day) | hearing level (500 Hz, Jan. 2004, water intake 1.5 lit./day) | hearing level (500 Hz, Nov. 2003, water intake 1.5 lit./day) | hearing level (2000 Hz, Aug. 2003, water intake 1.5 lit./day) | hearing level (2000 Hz, Dec. 2003, water intake 1.5 lit./day) | hearing level (2000 Hz, Jan. 2004, water intake 1.5 lit./day) | hearing level (2000 Hz, Nov. 2003, water intake 1.5 lit./day) | hearing level (2000 Hz, Oct. 2003, water intake 1.5 lit./day) | hearing level after treatment (case 7, left ear, 4000 Hz, Oct. 10, 2003, poorest level 18-24 months after treatment, water intake, before 30 dB)
35.0 dB: hearing level, average (500-4000 Hz) (Jun. 2003, water intake 1.5 lit./day from Jun. 20, 2003)
16.25 dB: hearing improved as compared with before the treatment (four-frequency PTA) (case 3, left ear, water intake)
8.75 dB: hearing level after treatment, average (500-4000 Hz) (case 7, left ear, Oct. 10, 2003, poorest level 18-24 months after treatment, water intake, before 22.5 dB)
1.25 dB: hearing improved as compared with before the treatment (four-frequency PTA) (case 6, right ear, water intake)
80 dB: hearing level (8000 Hz, Oct. 2003, water intake 1.5 lit./day) | hearing level (8000 Hz, Sep. 2003, water intake 1.5 lit./day) | hearing level after treatment (case 6, right ear, 250 Hz, Apr. 11, 2002, poorest level 18-24 months after treatment, water intake, before 85 dB) | hearing level after treatment (case 6, right ear, 500 Hz, Apr. 11, 2002, poorest level 18-24 months after treatment, water intake, before 85 dB) | hearing level after treatment (case 8, right ear, 8000 Hz, Sep. 19, 2003, poorest level 18-24 months after treatment, water intake, before 85 dB)
50 dB: hearing level (125 Hz, Jul. 2003, water intake 1.5 lit./day) | hearing level (1000 Hz, Jul. 2003, water intake 1.5 lit./day) | hearing level (1000 Hz, Jun. 2003, water intake 1.5 lit./day from Jun. 20, 2003)
43.75 dB: hearing level after treatment, average (500-4000 Hz) (case 8, right ear, Sep. 19, 2003, poorest level 18-24 months after treatment, water intake, before 58.75 dB)
75 dB: hearing level (8000 Hz, Aug. 2003, water intake 1.5 lit./day) | hearing level (8000 Hz, Jun. 2003, water intake 1.5 lit./day from Jun. 20, 2003) | hearing level after treatment (case 6, right ear, 2000 Hz, Apr. 11, 2002, poorest level 18-24 months after treatment, water intake, before 75 dB)
15 dB: hearing level after treatment (case 1, right ear, 500 Hz, Aug. 29, 2003, water intake 2 lit./day, before 45 dB) | hearing level after treatment (case 1, right ear, 1000 Hz, Aug. 29, 2003, water intake 2 lit./day, before 50 dB) | hearing level after treatment (case 1, right ear, 2000 Hz, Aug. 29, 2003, water intake 2 lit./day, before 35 dB) | hearing level after treatment (case 3, left ear, 500 Hz, Jun. 7, 2002, poorest level 18-24 months after treatment, water intake, before 25 dB) | hearing level after treatment (case 3, left ear, 8000 Hz, Jun. 7, 2002, poorest level 18-24 months after treatment, water intake, before 80 dB) | hearing level (500 Hz, Dec. 2003, water intake 1.5 lit./day)
0 dB: hearing level after treatment (case 1, right ear, 125 Hz, Aug. 29, 2003, water intake 2 lit./day, before 45 dB)
60 dB: hearing level (4000 Hz, Jul. 2003, water intake 1.5 lit./day) | hearing level (8000 Hz, Dec. 2003, water intake 1.5 lit./day) | hearing level after treatment (case 8, right ear, 4000 Hz, Sep. 19, 2003, poorest level 18-24 months after treatment, water intake, before 65 dB)
35 dB: hearing level (250 Hz, Jun. 2003, water intake 1.5 lit./day from Jun. 20, 2003) | hearing level (4000 Hz, Nov. 2003, water intake 1.5 lit./day) | hearing level after treatment (case 8, right ear, 500 Hz, Sep. 19, 2003, poorest level 18-24 months after treatment, water intake, before 60 dB)
improved: category of change of hearing, AAO-HNS (1995) criteria (case 3, water intake) | category of change of hearing, AAO-HNS (1995) criteria (case 7, water intake) | category of change of hearing, AAO-HNS (1995) criteria (case 8, water intake)
30 dB: hearing level (125 Hz, Jun. 2003, water intake 1.5 lit./day from Jun. 20, 2003) | hearing level (125 Hz, Oct. 2003, water intake 1.5 lit./day) | hearing level (125 Hz, Sep. 2003, water intake 1.5 lit./day) | hearing level (250 Hz, Oct. 2003, water intake 1.5 lit./day) | hearing level (1000 Hz, Aug. 2003, water intake 1.5 lit./day) | hearing level (1000 Hz, Nov. 2003, water intake 1.5 lit./day) | hearing level (4000 Hz, Aug. 2003, water intake 1.5 lit./day) | hearing level (4000 Hz, Dec. 2003, water intake 1.5 lit./day) | hearing level (4000 Hz, Oct. 2003, water intake 1.5 lit./day)
15.0 dB: hearing improved as compared with before the treatment (four-frequency PTA) (case 8, right ear, water intake)
13.75 dB: hearing level after treatment, average (500-4000 Hz) (case 1, right ear, Aug. 29, 2003, water intake 2 lit./day, before 35 dB) | hearing improved as compared with before the treatment (four-frequency PTA) (case 7, left ear, water intake)
22.5 dB: hearing level, average (500-4000 Hz) (Dec. 2003, water intake 1.5 lit./day) | hearing level, average (500-4000 Hz) (Jan. 2004, water intake 1.5 lit./day)
40 dB: hearing level (250 Hz, Sep. 2003, water intake 1.5 lit./day) | hearing level (500 Hz, Jun. 2003, water intake 1.5 lit./day from Jun. 20, 2003) | hearing level (500 Hz, Sep. 2003, water intake 1.5 lit./day) | hearing level (2000 Hz, Sep. 2003, water intake 1.5 lit./day) | hearing level (4000 Hz, Sep. 2003, water intake 1.5 lit./day) | hearing level after treatment (case 8, right ear, 125 Hz, Sep. 19, 2003, poorest level 18-24 months after treatment, water intake, before 60 dB) | hearing level after treatment (case 8, right ear, 250 Hz, Sep. 19, 2003, poorest level 18-24 months after treatment, water intake, before 70 dB) | hearing level after treatment (case 8, right ear, 1000 Hz, Sep. 19, 2003, poorest level 18-24 months after treatment, water intake, before 60 dB) | hearing level after treatment (case 8, right ear, 2000 Hz, Sep. 19, 2003, poorest level 18-24 months after treatment, water intake, before 50 dB)
7.5 dB: hearing level after treatment, average (500-4000 Hz) (case 3, left ear, Jun. 7, 2002, poorest level 18-24 months after treatment, water intake, before 23.75 dB)
26.25 dB: hearing level, average (500-4000 Hz) (Aug. 2003, water intake 1.5 lit./day)
25.0 dB: hearing level, average (500-4000 Hz) (Oct. 2003, water intake 1.5 lit./day)
50.0 dB: hearing level, average (500-4000 Hz) (Jul. 2003, water intake 1.5 lit./day)
23.75 dB: hearing level, average (500-4000 Hz) (Nov. 2003, water intake 1.5 lit./day)
10 dB: hearing level after treatment (case 1, right ear, 4000 Hz, Aug. 29, 2003, water intake 2 lit./day, before 10 dB)
45 dB: hearing level (250 Hz, Jul. 2003, water intake 1.5 lit./day) | hearing level (500 Hz, Jul. 2003, water intake 1.5 lit./day) | hearing level (1000 Hz, Sep. 2003, water intake 1.5 lit./day) | hearing level (2000 Hz, Jul. 2003, water intake 1.5 lit./day) | hearing level after treatment (case 7, left ear, 8000 Hz, Oct. 10, 2003, poorest level 18-24 months after treatment, water intake, before 40 dB)
65 dB: hearing level (8000 Hz, Jan. 2004, water intake 1.5 lit./day) | hearing level (8000 Hz, Nov. 2003, water intake 1.5 lit./day) | hearing level after treatment (case 6, right ear, 125 Hz, Apr. 11, 2002, poorest level 18-24 months after treatment, water intake)
25 dB: hearing level after treatment (case 1, right ear, 8000 Hz, Aug. 29, 2003, water intake 2 lit./day, before 15 dB) | hearing level after treatment (case 3, left ear, 125 Hz, Jun. 7, 2002, poorest level 18-24 months after treatment, water intake, before 40 dB) | hearing level (125 Hz, Aug. 2003, water intake 1.5 lit./day) | hearing level (125 Hz, Dec. 2003, water intake 1.5 lit./day) | hearing level (125 Hz, Jan. 2004, water intake 1.5 lit./day) | hearing level (125 Hz, Nov. 2003, water intake 1.5 lit./day) | hearing level (250 Hz, Aug. 2003, water intake 1.5 lit./day) | hearing level (250 Hz, Dec. 2003, water intake 1.5 lit./day) | hearing level (250 Hz, Jan. 2004, water intake 1.5 lit./day) | hearing level (500 Hz, Aug. 2003, water intake 1.5 lit./day) | hearing level (500 Hz, Oct. 2003, water intake 1.5 lit./day) | hearing level (1000 Hz, Dec. 2003, water intake 1.5 lit./day) | hearing level (1000 Hz, Jan. 2004, water intake 1.5 lit./day) | hearing level (1000 Hz, Oct. 2003, water intake 1.5 lit./day) | hearing level (2000 Hz, Jun. 2003, water intake 1.5 lit./day from Jun. 20, 2003) | hearing level (4000 Hz, Jan. 2004, water intake 1.5 lit./day) | hearing level (4000 Hz, Jun. 2003, water intake 1.5 lit./day from Jun. 20, 2003)
unchanged: category of change of hearing, AAO-HNS (1995) criteria (case 6, water intake)
41.25 dB: hearing level, average (500-4000 Hz) (Sep. 2003, water intake 1.5 lit./day)
5 dB: hearing level after treatment (case 1, right ear, 250 Hz, Aug. 29, 2003, water intake 2 lit./day, before 45 dB) | hearing level after treatment (case 3, left ear, 1000 Hz, Jun. 7, 2002, poorest level 18-24 months after treatment, water intake, before 15 dB) | hearing level after treatment (case 3, left ear, 2000 Hz, Jun. 7, 2002, poorest level 18-24 months after treatment, water intake, before 10 dB) | hearing level after treatment (case 3, left ear, 4000 Hz, Jun. 7, 2002, poorest level 18-24 months after treatment, water intake, before 45 dB) | hearing level after treatment (case 7, left ear, 125 Hz, Oct. 10, 2003, poorest level 18-24 months after treatment, water intake, before 35 dB) | hearing level after treatment (case 7, left ear, 250 Hz, Oct. 10, 2003, poorest level 18-24 months after treatment, water intake, before 40 dB) | hearing level after treatment (case 7, left ear, 500 Hz, Oct. 10, 2003, poorest level 18-24 months after treatment, water intake, before 30 dB) | hearing level after treatment (case 7, left ear, 1000 Hz, Oct. 10, 2003, poorest level 18-24 months after treatment, water intake, before 20 dB) | hearing level after treatment (case 7, left ear, 2000 Hz, Oct. 10, 2003, poorest level 18-24 months after treatment, water intake, before 10 dB)
85 dB: hearing level (8000 Hz, Jul. 2003, water intake 1.5 lit./day) | hearing level after treatment (case 6, right ear, 1000 Hz, Apr. 11, 2002, poorest level 18-24 months after treatment, water intake, before 85 dB)
82.5 dB: hearing level after treatment, average (500-4000 Hz) (case 6, right ear, Apr. 11, 2002, poorest level 18-24 months after treatment, water intake, before 83.75 dB)
90 dB: hearing level after treatment (case 6, right ear, 4000 Hz, Apr. 11, 2002, poorest level 18-24 months after treatment, water intake, before 90 dB) | hearing level after treatment (case 6, right ear, 8000 Hz, Apr. 11, 2002, poorest level 18-24 months after treatment, water intake, before 95 dB)
